One assay concerns Varroa mite forelegs. As to the kind of experiment: coupled gas chromatography and electroantennographic detection (GC-EAD) with mite forelegs. Set-up: species or system Varroa mites. The settings on record: standard with compounds at equal concentrations. From the text:
To determine if mites can detect the acid compounds we used coupled gas chromatography and electroantennographic detection (GC-EAD) and electroantennography (EAG). […] A detecting electrode was set up with electrode gel on each contact and then a mite was dissected so that both of its forelegs could be set across the electrodes. The electrode gel provides both a better contact and keeps the forelegs from drying out. For GC-EAD we used a standard containing our two attractive acids along with other short chain acids (i.e., acetic acid, propanoic acid, and hexanoic acid) and common bee odors (iso-pentyl acetate, delta-3-carene, E-(β)-ocimine) at equal concentrations. […] We used EAG to determine the responses of forelegs to the individual detected compounds. […] The dashed line in FIG. 6 represents the level of the control response.

The test system of the next assay is Free-roaming mites. As to the kind of experiment: visual evaluation of free-roaming mites under the microscope. It counts as in vivo, Varroa mites. The note with it: for excitation and search behaviors (questing and casting): acid volatiles from capillary tubes; for movement relative to acid droplets: free-roaming mites. The source says:
(§1) Once we determined that the mites could perceive and respond to the acid volatiles, we examined whether these acids acted as attractants or repellents. We developed a four choice bioassay to evaluate the responses of mites to highly concentrated volatiles released at very close distances (7 mm). Our choice arena consisted of four odor sources presented directly beneath a permeable mesh floor. Each odor source was introduced by capillary release from a capillary tube, the volatiles diffused up through the permeable mesh floor. Free-roaming (off the adult bee) mites were introduced onto a vertical pin placed in the center of the arena. […] The expected value for response is 25% as indicated by the dashed line. […] Free-roaming mites were also exposed to these chemicals under the microscope to visually evaluate mite detection, attraction, and arrestant responses to the acid volatiles.

Assay [1] concerns phoretic mites on adult bees. Nature of the assay: bottom screen assay: mite-infested adult worker bees in screen bottomed jar over water trap. It is filed as in vivo, Varroa mites. The settings on record: 20 minutes; for mites that fell off bees versus control jars: 200 mite-infested bees per jar, 100 μL, three replicates, control methylene chloride; for mite activity level versus control treatments: exposure to acid volatiles. As for the experimental part:
We then performed a bottom screen assay to assess the response of phoretic mites on adult bees to the acid volatiles. We placed 200 mite-infested adult worker bees in a screen bottomed jar inverted over a water trap. A total of nine jars were used, three replicates of each treatment. The mites and bees were exposed to either butyric acid, isobutyric acid, or a control solvent (methylene chloride) (100 μL) for 20 minutes. Mites that moved off the bees fell into the water trap below. At the end of the experiment, the bees were washed with alcohol to estimate the number of mites that remained on the bees.

Assay [2] concerns mites. Nature of the assay: two choice diffusion bioassay, Ethovision tracking. It is filed as in vivo, Varroa mites. The settings on record: 5% butyric acid in water vs water, 8 mites, p<0.001. From the text:
(§2) This experiment used the tracking software Ethovision XT (Noldus Information Technology, Leesburg Va.) to monitor the position of mites in an arena. The arena was a four quadrant petri dish 7.5 cm in diameter, the sides of the dish were ground down so that the separations were all the same height as the edges. A plexiglass ring, 7.5 cm outside diameter 2.5 cm high, with 11 micron Nitex fabric attached to the bottom contained the mite and separated the mite from the odor sources but allowed the odors to diffuse through the fabric. The petri dish quadrants were filled either with 5% butyric acid in water, or water only as a control. Opposite quadrants were filled with the same material so that the bottom of each quadrant was completely covered with liquid. This ensured equal surface areas for diffusion of the solute and solvent. Each experiment was conducted with 8 mites. […] A second set of no choice assays was also performed, these assays used an un-separated petri dish to hold the 5% acid solution and the movements of the mites over the solution were monitored.

The test system of assay [3] is Free-roaming (off the adult bee) mites. Nature of the assay: four choice arena bioassay. The note with it: for mite attraction: movement toward odor source (contact or position at end of bioassay): 5% by volume in distilled water vs three water controls, 5 minutes, expected value 25%; for arrestant (stopping) behavior: four choice arena, 5% by volume in distilled water. It is filed as in vivo, Varroa mites.
Description: as §1, with “We” for “Once we determined that the mites could perceive and respond to the acid volatiles, we examined whether these acids acted as attractants or repellents. We”

Assay [4] relates to mites. As to the kind of experiment: no choice test with Ethovision analysis. It counts as in vivo, Varroa mites.
Description: as §2

“Also recorded” adds a separate entry of the source.

Take `C=C/C(C)=C/CC=C(C)C` [E-(β)-ocimine]: the “detection by mite forelegs (GC-EAD)” value with Varroa mite forelegs is listed as “did not appear to be detected”.
Still for that read-out and setting: in the case of `CC(=O)O` [acetic acid] it was “could clearly detect”.
Regarding `CCCC(=O)O` [butyric acid], in the assay on Free-roaming mites, the “excitation and search behaviors (questing and casting)” value was “showed excitation and search behaviors”; the “movement relative to acid droplets” value was “moved toward and occasionally into acid droplets”. For the same molecule, in assay [1], the “mites that fell off bees versus control jars” value was “significantly more mites fell off bees” and the “mite activity level versus control treatments” value was “much higher activity levels”. The “time spent in zone over odor source versus control zones” value in the assay on mites [2] is reported as “spent significantly more time”. In addition, in the assay on mites [2] (listed as Butyric Acid), the “time spent in zone over odor source versus control zones” value is “more time is spent”. In assay [3], the “mite attraction: movement toward odor source (contact or position at end of bioassay)” value was “significantly more likely to move in the direction of” and the “arrestant (stopping) behavior” value was “did not display any arrestant (stopping) behavior”. Moreover, the “detection by mite forelegs (GC-EAD)” value with Varroa mite forelegs is “excited by”. Moreover, in the assay on mites [4] (5% acid solution, un-separated petri dish), the “movement (speed, stopping, time moving) versus water control” value was “significantly less time moving; also recorded: moving slower and stopping more often”. Further, in the assay with mites [4] (5% acid solution, un-separated petri dish, p<0.001), the “time spent in zone/arena over the acid versus water” value was “significantly more time; also recorded: spent more time in the arena”. In addition, in the assay on mites [4] (EthoVision diffusion bioassays, sustained exposure to high concentrations of volatiles), the “arrestant behaviors on sustained exposure” value is given as “caused arrestant behaviors”.
Consider `CC1=CCC2C(C1)C2(C)C` (stereo not shown) [delta-3-carene], for which the “detection by mite forelegs (GC-EAD)” value with Varroa mite forelegs is given as “did not appear to be detected”.
Take `CCCCCC(=O)O` [hexanoic acid]: the “detection by mite forelegs (GC-EAD)” value in the assay with Varroa mite forelegs is recorded as “did not appear to be detected”.
The same measure, in the same setting: in the case of `CC(=O)OCCC(C)C` [iso-pentyl acetate] it was “did not appear to be detected”.
For the molecule `CC(C)C(=O)O` [isobutyric acid], in the assay on Free-roaming mites, the “excitation and search behaviors (questing and casting)” value was “showed excitation and search behaviors”; the “movement relative to acid droplets” value is “moved toward and occasionally into acid droplets”. For the same molecule, in assay [1], the “mites that fell off bees versus control jars” value is given as “significantly more mites fell off bees” and the “mite activity level versus control treatments” value is “much higher activity levels”. In assay [3], the “mite attraction: movement toward odor source (contact or position at end of bioassay)” value was “significantly more likely to move in the direction of” and the “arrestant (stopping) behavior” value is on record as “did not display any arrestant (stopping) behavior”. The “detection by mite forelegs (GC-EAD)” value in the assay with Varroa mite forelegs was “excited by”.
Turning to `CCC(=O)O` [propanoic acid], in the assay with Varroa mite forelegs, the “detection by mite forelegs (GC-EAD)” value is listed as “did not appear to be detected”.

For the origin of these results see patent publication US8647615B1, “Methods for attracting honey bee parasitic mites” (The United States of America, as represented by the …, priority 2010, dated 2014).
